Laboratory results as given in publication PMC7033671 (ACS Omega, 2020).
Each block holds one molecule with its values, some of them ahead of it.

Legend:
K562 = experiment: CellTiter-Blue cell viability, K562; type: cell-based, human; details: for IC50: Homo sapiens, K562, 72 h, read-out: IC50 against K562
KCL22 = experiment: CellTiter-Blue cell viability, KCL22; type: cell-based, human; details: for IC50: Homo sapiens, KCL-22, 72 h, read-out: IC50 against KCL22
KCL22-IR = experiment: CellTiter-Blue cell viability, KCL22-IR; type: cell-based, human; details: for IC50: Homo sapiens, 72 h, read-out: IC50 against KCL22-IR
MV-4-11 = experiment: CellTiter-Blue cell viability, MV-4-11; type: cell-based; details: Homo sapiens, MV4-11, 72 h, read-out: IC50 against MV-4-11
MOLM13-res = experiment: CellTiter-Blue cell viability, MOLM13-res; type: cell-based; details: Homo sapiens, 72 h, read-out: IC50 against MOLM13-res
MOLM14 = experiment: CellTiter-Blue cell viability, MOLM14; type: cell-based; details: Homo sapiens, MOLM-14, 72 h, read-out: IC50 against MOLM14
MOLM14-D835Y = experiment: CellTiter-Blue cell viability, MOLM14-D835Y; type: cell-based; details: Homo sapiens, 72 h, read-out: IC50 against MOLM14-D835Y
MOLM14-F691L = experiment: CellTiter-Blue cell viability, MOLM14-F691L; type: cell-based; details: Homo sapiens, MOLM-14, 72 h, read-out: IC50 against MOLM14-F691L
LC2/Ad = experiment: CellTiter-Blue cell viability, LC2/Ad; type: cell-based; details: Homo sapiens, LC-2-ad, 72 h, read-out: IC50 against LC2/Ad
H520 = experiment: CellTiter-Blue cell viability, H520; type: cell-based; details: Homo sapiens, NCI-H520, 72 h, read-out: IC50 against H520
MNK2 = MNK2 (Homo sapiens, UniProt Q9HBH9); experiment: biochemical; details: read-out: inhibition of MNK2
c-SRC = c-SRC (Homo sapiens, UniProt P12931); experiment: Reaction Biology 33P-ATP kinase assay, c-SRC; details: read-out: inhibition against c-Src
FLT3 (ITD) = biological target: T1, FLT3 (ITD) (Homo sapiens, UniProt P36888, ITD); experiment: Reaction Biology 33P-ATP kinase assay, FLT3; details: read-out: inhibition against FLT3(ITD)
T1 sequence (P36888 564-993): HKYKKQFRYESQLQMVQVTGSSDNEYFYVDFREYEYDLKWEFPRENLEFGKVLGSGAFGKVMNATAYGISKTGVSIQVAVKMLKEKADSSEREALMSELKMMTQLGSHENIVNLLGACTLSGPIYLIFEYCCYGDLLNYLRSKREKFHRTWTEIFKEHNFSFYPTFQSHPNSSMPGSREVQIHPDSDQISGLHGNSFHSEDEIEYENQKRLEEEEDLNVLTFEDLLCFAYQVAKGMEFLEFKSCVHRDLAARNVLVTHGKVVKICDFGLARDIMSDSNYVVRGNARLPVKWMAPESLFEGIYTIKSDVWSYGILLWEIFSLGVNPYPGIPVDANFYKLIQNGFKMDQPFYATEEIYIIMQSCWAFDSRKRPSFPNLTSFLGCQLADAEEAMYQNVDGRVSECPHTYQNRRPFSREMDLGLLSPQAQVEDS

ABL1 (T315I) = ABL1 (T315I) (Homo sapiens, UniProt P00519, T315I); experiment: Reaction Biology 33P-ATP kinase assay, ABL1; details: read-out: inhibition against ABL1(T315I)
c-Kit = c-Kit (Homo sapiens, UniProt P10721); experiment: Reaction Biology 33P-ATP kinase assay, c-Kit; type: biochemical
FLT3 (D835Y) = biological target: T2, FLT3 (D835Y) (Homo sapiens, UniProt P36888, D835Y); experiment: Reaction Biology 33P-ATP kinase assay, FLT3; details: read-out: inhibition against FLT3(D835Y)
T2 sequence (P36888 27-993 D835Y): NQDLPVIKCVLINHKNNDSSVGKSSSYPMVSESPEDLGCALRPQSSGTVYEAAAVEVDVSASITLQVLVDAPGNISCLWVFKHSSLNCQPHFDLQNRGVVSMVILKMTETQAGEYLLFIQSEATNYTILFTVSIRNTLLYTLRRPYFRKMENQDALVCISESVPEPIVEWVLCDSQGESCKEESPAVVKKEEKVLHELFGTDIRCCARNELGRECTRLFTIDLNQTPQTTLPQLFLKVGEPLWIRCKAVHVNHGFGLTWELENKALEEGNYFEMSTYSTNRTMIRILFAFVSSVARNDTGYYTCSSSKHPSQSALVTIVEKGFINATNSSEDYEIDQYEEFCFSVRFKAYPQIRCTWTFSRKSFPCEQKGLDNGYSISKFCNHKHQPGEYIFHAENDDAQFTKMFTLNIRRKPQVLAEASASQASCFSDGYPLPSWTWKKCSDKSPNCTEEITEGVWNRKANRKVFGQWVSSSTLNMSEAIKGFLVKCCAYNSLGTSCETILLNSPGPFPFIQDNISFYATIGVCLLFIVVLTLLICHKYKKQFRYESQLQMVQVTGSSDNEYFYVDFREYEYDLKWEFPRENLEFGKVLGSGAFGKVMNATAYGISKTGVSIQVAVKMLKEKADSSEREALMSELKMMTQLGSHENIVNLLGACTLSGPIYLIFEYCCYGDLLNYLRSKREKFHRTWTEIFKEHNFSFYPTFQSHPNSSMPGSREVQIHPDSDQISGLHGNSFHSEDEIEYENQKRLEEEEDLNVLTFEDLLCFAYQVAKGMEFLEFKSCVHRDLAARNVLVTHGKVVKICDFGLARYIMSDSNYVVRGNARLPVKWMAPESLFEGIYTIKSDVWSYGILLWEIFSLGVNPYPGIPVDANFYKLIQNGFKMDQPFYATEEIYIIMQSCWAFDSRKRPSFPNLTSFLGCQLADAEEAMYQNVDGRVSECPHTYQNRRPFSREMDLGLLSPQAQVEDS

Chain of c-SRC (P12931 whole entry): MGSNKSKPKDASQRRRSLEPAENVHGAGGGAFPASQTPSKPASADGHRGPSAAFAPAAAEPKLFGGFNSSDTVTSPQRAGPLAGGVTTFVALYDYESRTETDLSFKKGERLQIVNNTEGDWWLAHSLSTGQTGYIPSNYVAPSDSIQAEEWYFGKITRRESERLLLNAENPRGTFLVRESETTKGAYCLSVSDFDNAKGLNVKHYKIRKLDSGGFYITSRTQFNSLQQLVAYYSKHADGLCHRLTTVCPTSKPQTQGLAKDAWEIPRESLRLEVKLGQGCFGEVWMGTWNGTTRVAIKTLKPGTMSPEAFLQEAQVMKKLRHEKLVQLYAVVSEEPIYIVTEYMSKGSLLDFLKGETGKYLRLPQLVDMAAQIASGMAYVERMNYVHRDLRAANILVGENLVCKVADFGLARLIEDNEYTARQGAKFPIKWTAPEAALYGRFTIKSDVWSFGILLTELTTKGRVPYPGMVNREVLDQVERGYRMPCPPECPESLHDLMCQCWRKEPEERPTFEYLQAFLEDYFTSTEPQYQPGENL
Chain of MNK2 (Q9HBH9 whole entry): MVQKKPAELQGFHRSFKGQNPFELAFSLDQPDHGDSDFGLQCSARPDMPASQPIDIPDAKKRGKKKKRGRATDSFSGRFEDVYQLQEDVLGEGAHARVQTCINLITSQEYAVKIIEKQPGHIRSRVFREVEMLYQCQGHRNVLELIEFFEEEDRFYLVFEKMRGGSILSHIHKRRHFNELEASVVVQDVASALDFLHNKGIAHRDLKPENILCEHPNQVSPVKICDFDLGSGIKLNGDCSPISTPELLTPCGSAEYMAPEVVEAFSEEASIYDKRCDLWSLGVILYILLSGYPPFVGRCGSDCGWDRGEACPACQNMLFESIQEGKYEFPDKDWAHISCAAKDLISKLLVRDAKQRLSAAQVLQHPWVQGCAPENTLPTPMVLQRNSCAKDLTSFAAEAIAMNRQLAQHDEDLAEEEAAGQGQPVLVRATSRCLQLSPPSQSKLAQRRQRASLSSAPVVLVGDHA
Chain of c-Kit (P10721 26-976): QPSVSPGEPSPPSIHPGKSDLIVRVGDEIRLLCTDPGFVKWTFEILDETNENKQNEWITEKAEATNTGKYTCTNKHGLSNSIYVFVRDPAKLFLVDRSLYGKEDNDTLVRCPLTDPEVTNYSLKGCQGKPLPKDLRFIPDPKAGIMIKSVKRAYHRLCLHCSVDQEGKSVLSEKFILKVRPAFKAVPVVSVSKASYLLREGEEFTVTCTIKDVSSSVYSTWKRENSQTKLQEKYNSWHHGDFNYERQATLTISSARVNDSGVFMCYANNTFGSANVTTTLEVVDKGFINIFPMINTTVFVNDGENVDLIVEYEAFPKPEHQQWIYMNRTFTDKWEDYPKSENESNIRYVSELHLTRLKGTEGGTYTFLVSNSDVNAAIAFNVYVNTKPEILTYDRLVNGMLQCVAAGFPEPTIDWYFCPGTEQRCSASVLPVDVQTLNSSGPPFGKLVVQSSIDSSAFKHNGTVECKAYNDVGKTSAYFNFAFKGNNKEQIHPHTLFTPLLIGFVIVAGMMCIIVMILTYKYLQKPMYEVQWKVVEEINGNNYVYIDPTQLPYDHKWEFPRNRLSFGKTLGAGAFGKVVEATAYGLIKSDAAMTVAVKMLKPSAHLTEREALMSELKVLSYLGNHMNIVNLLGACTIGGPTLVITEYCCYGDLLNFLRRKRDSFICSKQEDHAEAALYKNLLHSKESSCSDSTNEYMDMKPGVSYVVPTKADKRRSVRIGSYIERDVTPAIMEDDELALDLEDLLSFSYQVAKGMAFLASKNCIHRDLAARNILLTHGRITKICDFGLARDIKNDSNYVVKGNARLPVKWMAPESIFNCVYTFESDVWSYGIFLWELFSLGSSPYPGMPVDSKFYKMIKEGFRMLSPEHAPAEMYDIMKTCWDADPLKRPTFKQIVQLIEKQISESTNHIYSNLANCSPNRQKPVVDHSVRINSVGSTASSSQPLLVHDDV

SMILES: Cc1ccc(C(=O)Nc2ccc(CN3CCN(C)CC3)c(C(F)(F)F)c2)cc1C#Cc1cnc2cccnn12 [ponatinib, reference compound]
- IC50 (K562): 0.6 ± 0.002 nM
- IC50 (KCL22): 0.14 ± 0.003 nM
- IC50 (KCL22-IR): 0.66 ± 0.005 nM
- IC50 (MV-4-11): 0.09 nM
- IC50 (MOLM13-res): 24.1 nM
- IC50 (MOLM14): 0.45 nM
- IC50 (MOLM14-D835Y): 52.6 nM
- IC50 (MOLM14-F691L): 6.8 nM
- IC50 (LC2/Ad): 35.1 nM
- IC50 (H520): 128 nM
- inhibition at 0.123 µM (MNK2): 32%
- inhibition at 0.111 µM (c-SRC): 98%
- inhibition at 0.004 µM (FLT3 (ITD)): < 40%

SMILES: CN1CCN(Cc2ccc(C(=O)Nc3cncc(C#Cc4cnc5cccnn45)c3)cc2C(F)(F)F)CC1 [HSL338, N-(5-(Imidazo[1,2-b]pyridazin-3-ylethynyl)pyridin-3-yl)-4-((4-methylpiperazin-1-yl)methyl)-3-(trifluoromethyl)benzamide]
- IC50 (K562): 0.45 ± 0.002 nM
- IC50 (KCL22): 1.4 ± 0.02 nM
- IC50 (KCL22-IR): 4.24 ± 0.05 nM
- inhibition at 0.004 µM (FLT3 (ITD)): 84%

SMILES: CN1CCN(Cc2ccc(NC(=O)c3cncc(C#Cc4cnc5ccccn45)c3)cc2C(F)(F)F)CC1 [HSL381, 5-(Imidazo[1,2-a]pyridin-3-ylethynyl)-N-(4-((4-methylpiperazin-1-yl)methyl)-3-(trifluoromethyl)phenyl)nicotinamide]
- IC50 (K562): 0.57 ± 0.003 nM
- IC50 (KCL22): 0.89 ± 0.005 nM
- IC50 (KCL22-IR): 4.24 ± 0.05 nM
- inhibition at 0.123 µM (MNK2): 84%
- inhibition at 0.004 µM (FLT3 (ITD)): 91%
- inhibition at 0.123 µM (ABL1 (T315I)): 73%

SMILES: CN1CCN(Cc2ccc(NC(=O)c3cncc(C#Cc4cnc5cccnn45)c3)cc2C(F)(F)F)CC1 [HSN748, 5-(Imidazo[1,2-b]pyridazin-3-ylethynyl)-N-(4-((4-methylpiperazin-1-yl)methyl)-3-(trifluoromethyl)phenyl)nicotinamide]
- IC50 (MOLM14): 0.25 nM
- IC50 (c-Kit): 96 ± 4.21 nM
- inhibition at 0.123 µM (MNK2): 85%
- inhibition at 0.111 µM (c-SRC): < 10%
- inhibition at 0.004 µM (FLT3 (ITD)): 86%
- inhibition at 0.111 µM (FLT3 (D835Y)): 87%

More lines, main results first:

- IC50 (K562): 28.1 ± 0.6 nM
SMILES: CN1CCN(Cc2ccc(NC(=O)c3cncc(C#Cc4cnc5ccnn5c4)c3)cc2C(F)(F)F)CC1 [HSL412, N-(4-((4-Methylpiperazin-1-yl)methyl)-3-(trifluoromethyl)phenyl)-5-(pyrazolo[1,5-a]pyrimidin-6-ylethynyl)nicotinamide]
- IC50 (KCL22): 28.1 ± 0.37 nM
- IC50 (KCL22-IR): > 100 nM

- IC50 against K562 (K562; CML cell line (ABL1), 72 h treatment): inactive
SMILES: CN1CCN(Cc2ccc(NC(=O)c3cncc(C#Cc4cnc5ncccn45)c3)cc2C(F)(F)F)CC1 [HSL382, 5-(Imidazo[1,2-a]pyrimidin-3-ylethynyl)-N-(4-((4-methylpiperazin-1-yl)methyl)-3-(trifluoromethyl)phenyl)nicotinamide]
- IC50 against KCL22 (KCL22; CML cell line, 72 h treatment): inactive
- IC50 (KCL22): > 100 nM
- IC50 (KCL22-IR): > 100 nM
- IC50 against KCL22-IR (KCL22-IR; imatinib-resistant CML line, 72 h treatment): inactive

- IC50 (K562): 0.26 ± 0.002 nM
SMILES: CN1CCN(Cc2ccc(NC(=O)c3cccc(C#Cc4cnc5cccnn45)c3)cc2C(F)(F)F)CC1 [HSL331, 3-(Imidazo[1,2-b]pyridazin-3-ylethynyl)-N-(4-((4-methylpiperazin-1-yl)methyl)-3-(trifluoromethyl)phenyl)benzamide]
- IC50 (KCL22): 0.63 ± 0.002 nM
- IC50 (KCL22-IR): 2.86 ± 0.04 nM

- IC50 (K562): 0.94 ± 0.002 nM
- inhibition at 0.123 µM (MNK2): 72%
SMILES: CN1CCN(Cc2ccc(NC(=O)c3cncc(C#Cc4cnc5cnccn45)c3)cc2C(F)(F)F)CC1 [HSL385, 5-(Imidazo[1,2-a]pyrazin-3-ylethynyl)-N-(4-((4-methylpiperazin-1-yl)methyl)-3-(trifluoromethyl)phenyl)nicotinamide]
- IC50 (KCL22): 2.62 ± 0.06 nM
- IC50 (KCL22-IR): 17.2 ± 0.86 nM

- IC50 (K562): 1.83 ± 0.02 nM
SMILES: CN1CCN(Cc2ccc(NC(=O)c3cncc(C#Cc4cncc5nccn45)c3)cc2C(F)(F)F)CC1 [HSL407, 5-(Imidazo[1,2-a]pyrazin-5-ylethynyl)-N-(4-((4-methylpiperazin-1-yl)methyl)-3-(trifluoromethyl)phenyl)nicotinamide]
- IC50 (KCL22): 2.93 ± 0.04 nM
- IC50 (KCL22-IR): 49.7 ± 2.5 nM

- IC50 (K562): 0.06 ± 0.002 nM
- inhibition at 0.111 µM (c-SRC): 32%
- inhibition at 0.123 µM (ABL1 (T315I)): 83%
SMILES: Cc1ncc(C(=O)Nc2ccc(CN3CCN(C)CC3)c(C(F)(F)F)c2)cc1C#Cc1cnc2cccnn12 [HSL420, 5-(Imidazo[1,2-b]pyridazin-3-ylethynyl)-6-methyl-N-(4-((4-methylpiperazin-1-yl)methyl)-3-(trifluoromethyl)phenyl)nicotinamide]
- IC50 (KCL22): 0.06 ± 0.002 nM
- IC50 (KCL22-IR): 0.46 ± 0.01 nM
